Data reported in patent publication US20070116823A1, “HIGH-POTENCY SWEETENER FOR HYDRATION AND SWEETENED HYDRATION COMPOSITION” (THE COCA-COLA COMPANY, priority 2005, published 2007).

Tests used:
[1] = system: panel of experts in the sensory evaluation of foods and beverages; assay: Sensory evaluation of sweetness linger by expert panel; type: in vivo; conditions: for Sweetness linger rating / Sweetness linger: scale 0=no to 5=high sweetness linger; for Sweetness Linger rating as defined by the protocol: reference points of the scale, REBA control sample 500 ppm
Method: Sensory evaluation of the samples prepared in Example Set G was carried out under the following protocol, similar to that described hereinabove. In this test protocol, none of the samples were swallowed. All samples were expectorated and the mouth was rinsed with water after the tasting. Immediately upon sensing maximal sweetness, the sample was expectorated, the mouth was rinsed with water and the rate of sweetness decay (“Sweetness Linger”) was measured, where attention was focused on the sweetness 3-4 min after the water rinse. After sample tasting was complete, a salty oyster cracker was chewed followed by a water rinse, and at least 5 minutes followed before tasting the next sample. The sweetness linger was rated by a panel of experts in the sensory evaluation of foods and beverages using the following scale: 0=no sweetness linger, 1=very slight sweetness linger, 2=slight sweetness linger, 3=moderate sweetness linger, 4=moderately high sweetness linger, 5=high sweetness linger.
The “Sweetness Linger” rating for sucrose observed by this protocol is defined as 0. The Sweetness Linger of a 500 ppm of REBA control sample is defined as 5. Experimental samples were tasted by the same protocol, always allowing sufficient time between samples to ensure re-equilibration of the sensory system. Re-tasting of control samples during the course of the experiment was allowed and encouraged.
The comparison taste test was performed between two controls and addition of sweet taste improving additive on the onset and/or sweetness linger.
Sweet taste improving compositions were combined with a REBA solution to determine their effect on sweetness linger. Screening of the initial sample, or further dilutions, allowed identification of concentrations which were just above-threshold, herein defined as “near-threshold concentrations.” The near-threshold additive concentrations, a 6- to 100-fold higher higher additive concentration (depending on the off-taste intensity), and a mid-level additive concentration (halfway between the near-threshold and higher additive concentration) were evaluated to determine the effect on sweetness linger of a REBA solution.
Formulations of a 500 ppm REBA in a phosphoric acid solution (75%) at a pH of 2.5 with phosphoric acid or a pH of 3.1 with citric acid and potassium citrate were prepared prior to the addition of the additives at the three levels of concentration.
\Sensory evaluation using the protocol described in Example Set C then was used to evaluate the sweetness linger of the REBA solutions.

[2] = Rate of dissolution of rebaudioside A forms in H2O at 25° C.; type: physicochemical; conditions: in words

Compound | Sweetness Linger rating as defined by the protocol [1] | Rate of dissolution in H2O at 25° C. [2] | further results
OC[C@H]1O[C@@](CO)(O[C@H]2O[C@H](CO)[C@@H](O)[C@H](O)[C@H]2O)[C@@H](O)[C@@H]1O [sucrose] | 0 |  | Sweetness linger rating ([1]; Set G control: 8 g of sugar in 100 ml of citrate buffer): 0; Sweetness linger rating ([1]; Set H control: 10 g of sugar in 100 ml carbon treated water, phosphoric acid to pH 2.4-2.5): 0
rebaudioside A | 5 |  | Sweetness linger ([1]; Example Set G: 400 ppm REBA in citric acid/potassium citrate composition equivalent to diet lemon-lime beverage, with or without additive): 5; Sweetness linger ([1]; Example Set H: REBA in carbon-treated water, phosphoric acid (75%) to pH 2.4-2.5, with or without additive): 5
rebaudioside A [Form 1] |  | Very low | 
rebaudioside A [Form 2] |  | Intermediate | 
rebaudioside A [Form 3] |  | High | 
rebaudioside A [Form 4] |  | High | 
